Experimental data from PMC11084256, “Penifuranone A: A Novel Alkaloid from the Mangrove Endophytic Fungus Penicillium crustosum SCNU-F0006” (International Journal of Molecular Sciences, 2024).
In brackets after ≈: the same amount, converted by molar mass. Read-outs that look alike come from different tables or passages of the source.

Tests used:
[1] = system: Banana Colletotrichum gloeosporioides; assay: Antifungal MIC, broth dilution method; format: cell-based; details: 72 h, means from three parallel experiments; for MIC: Colletotrichum gloeosporioides, read-out: minimum inhibitory concentration (MIC) against Banana Colletotrichum gloeosporioides
Procedure: (§1) The bioactivity test screened the following four phytopathogenic microorganisms: Fusarium oxysporum; Penicillium italicum; Banana Colletotrichum gloeosporioides; and Colletrichum litchi Trag. The minimum inhibitory concentration (MIC) was determined using the broth dilution method, with a minor modification. Fungi were removed from the refrigerator and cultured dynamically at a constant temperature in Potato Dextrose Broth at room temperature for 72 h. The fungal liquid was diluted with broth to 0.5 McFarland turbidity. The sample was prepared into an initial solution of 1 mg/mL with dimethyl sulfoxide (DMSO), and the concentrations of the 1st to 12th wells of the 96-well plate sample group were made by the double dilution method (mg/mL): 1, 0.5, 0.25, 0.125, and 0.0625. Each plate also contained a positive control (ciprofloxacin or carbendazim), as well as a sterile control and growth control (containing broth and fungal liquid, no compound). The plates were incubated at 35 °C for 72 h. The use of 10 μL of a solution with a concentration of 11 mg/mL of Esazurin added to each well of a 96-well plate, followed by incubation at 37 °C for 3 h, allowed for the observation of color changes to determine the minimum inhibitory concentration (MIC) values.

Fusarium oxysporum = assay: Antifungal MIC, broth dilution method; format: cell-based; details: 72 h, means from three parallel experiments; for MIC: Fusarium oxysporum, read-out: minimum inhibitory concentration (MIC) against Fusarium oxysporum
Procedure: as §1

Penicillium italicum = assay: Antifungal MIC, broth dilution method; format: cell-based; details: 72 h, means from three parallel experiments; for MIC: Penicillium italicum, read-out: minimum inhibitory concentration (MIC) against Penicillium italicum
Procedure: as §1

Colletrichum litchi Tra = assay: Antifungal MIC, broth dilution method; format: cell-based, Colletrichum litchi Trag; details: 72 h, means from three parallel experiments; for MIC: read-out: minimum inhibitory concentration (MIC) against Colletrichum litchi Tra
Procedure: as §1

[2] = system: Escherichia coli (ATCC 25922); assay: Antibacterial MIC, broth dilution method; format: cell-based; details: mean from three parallel experiments; for MIC: Escherichia coli, ATCC25922, 24 h, read-out: minimum inhibitory concentration (MIC) against Escherichia coli
Procedure: (§2) The bioactivity test screened the following four human pathogenic microorganisms: Pseudomonas aeruginosa (ATCC 9027); Salmonella typhimurium (ATCC 6539); Escherichia coli (ATCC 25922); and Staphylococcus aureus (ATCC 12598). The minimum inhibitory concentration was determined using the broth dilution method, with a minor modification. Bacteria were removed from the refrigerator and cultured dynamically at a constant temperature in a Mueller–Hinton Broth at room temperature for 24 h. The bacterial liquid was diluted with broth to 0.5 McFarland turbidity. The sample was prepared into an initial solution of 1 mg/mL with dimethyl sulfoxide (DMSO), and the concentrations of the 1st to 12th wells of the 96-well plate sample group were made by the double dilution method (mg/mL): 1, 0.5, 0.25, 0.125, and 0.0625. Each plate also contained a positive control (ciprofloxacin or carbendazim), as well as a sterile control and growth control (containing broth and bacterial liquid, no compound). The plates were incubated at 35 °C for 24 h. The use of 10 μL of a solution with a concentration of 11 mg/mL of Esazurin added to each well of a 96-well plate, followed by incubation at 37 °C for 3 h, allowed for the observation of color changes to determine the minimum inhibitory concentration (MIC) values.

[3] = system: Pseudomonas aeruginosa (ATCC 9027); assay: Antibacterial MIC, broth dilution method; format: cell-based; details: mean from three parallel experiments; for MIC: Pseudomonas aeruginosa, ATCC9027, 24 h, read-out: minimum inhibitory concentration (MIC) against Pseudomonas aeruginosa
Procedure: as §2

[4] = system: Salmonella typhimurium (ATCC 6539); assay: Antibacterial MIC, broth dilution method; format: cell-based; details: 24 h, mean from three parallel experiments; for MIC: Salmonella enterica, read-out: minimum inhibitory concentration (MIC) against Salmonella typhimurium
Procedure: as §2

[5] = system: Staphylococcus aureus (ATCC 12598); assay: Antibacterial MIC, broth dilution method; format: cell-based; details: mean from three parallel experiments; for MIC: Staphylococcus aureus, ATCC12598, 24 h, read-out: minimum inhibitory concentration (MIC) against Staphylococcus aureus
Procedure: as §2

RAW 264.7 cells = assay: MTT cell viability (cytotoxicity); format: cell-based; details: RAW 264.7 cells
Procedure: (§3) The MTT method was utilized to assess cell viability. RAW 264.7 cells, at a concentration of 5 × 10^5 cells/mL, were plated in 96-well plates and exposed to lipopolysaccharide (LPS, at 1 μg/mL) in the presence or absence of the test compounds for a duration of 24 h. Following this, 100 μL of a 2 mg/mL MTT solution was introduced into each well, and after a 4 h incubation, the resulting formazan precipitates were dissolved in 100 μL of DMSO. The optical density was then determined at 490 nm using a microplate reader (Multiskan GO, Thermo Scientific, Waltham, MA, USA). The results were presented as the average percentage of cell viability relative to the untreated control group.

DPPH scavenging assay = details: 30 min at 37 °C in the dark, read-out: Radical Scavenging Activity (IC50)
Procedure: The assay for scavenging 1,1-Diphenyl-2-picrylhydrazyl radical 2,2-Diphenyl-1-(2,4,6-trinitrophenyl)hydrazyl (DPPH free radicals) was conducted following a previously established modified protocol. The DPPH was dissolved in ethanol to prepare a 0.5 mmol/L DPPH ethanolic solution (10 mL), which was stored away from light. Subsequently, 100 μL of the DPPH solution was added to each well of a 96-well plate. The sample was prepared into an initial solution of 200 μM with ethanol, and the concentrations of the 1st to 12th wells of the 96-well plate sample group were made by the double dilution method (μM): 200,100, 50, 25, and 12.5 μM. The reaction was monitored by measuring the absorbance at 490 nm using a microplate reader (iMark, Bio-Rad, Hercules, CA, USA) after shaking the reaction for 30 min at 37 °C in the dark. The DPPH radical scavenging activity was determined by a comparison of the absorbance of the samples and a blank control. Vitamin C was used as a positive control at the same concentration as the other samples.

[6] = system: NO production in LPS-stimulated RAW 264.7 cells; assay: Inhibition of LPS-stimulated NO production, Griess assay; format: cell-based; details: LPS (1 μg/mL)-stimulated RAW 264.7 cells
Procedure: Compounds 1–2 were evaluated for their inhibitory effects on LPS-stimulated NO production in RAW 264.7 cells using the Griess assay. The cell line RAW 264.7, obtained from the Cell Bank of the Chinese Academy of Sciences (CBCAS) in Shanghai, China, was propagated in Dulbecco’s Modified Eagle Medium (DMEM) supplemented with 10% Fetal Bovine Serum (FBS). In the logarithmic growth phase, the cells were digested with trypsin and inoculated into 96-well plates (1 × 10^5/well). After being cultured at 37 °C with 5% CO2 for 12 h, the cells were treated with DMEM containing different concentrations of compounds (0, 3.125, 6.25, 12.5, 25, 50, and 100 μM). Two hours later, the cells were treated with LPS at a concentration of […] (1 μg/mL) and incubated under standard cell culture conditions for a period of 24 h. Fifty microliters of cell supernatant was mixed with an equal volume of Griess reagent (1% anhydrous p-aminobenzene sulfonic acid and 0.1% N-1-naphthalene ethylenediamine hydrochloride in 5% concentrated phosphoric acid). Absorbance was measured with a microplate reader at 540 nm. The IC50 values were calculated using the SPSS 25.0 statistical software analysis package based on the inhibition rate of each group.

[7] = MTT cell viability (cytotoxicity); format: cell-based; details: mouse; for IC50 at 24 h: MTT assay, read-out: cytotoxic effects on RAW 264.7 cells (IC50)
Procedure: as §3

[8] = RAW 264.7 cells, MTT, evaluated with cell viability at 50 μM, read-out: Cytotoxicity (CC50)

Molecule	IC50 (DPPH scavenging assay) [µM]	MIC [1] [µg/mL]	MIC (Fusarium oxysporum) [µg/mL]	MIC (Penicillium italicum) [µg/mL]	MIC (Colletrichum litchi Tra) [µg/mL]	MIC [2] [µg/mL]	MIC [3] [µg/mL]	MIC [4] [µg/mL]	MIC [5] [µg/mL]	IC50 ([6]; Mus musculus, RAW264.7, 24 h) [µM]	IC50 at 24 h ([7]; RAW 264.7 cells) [µM]	CC50 at 24 h [7, 8] [µM]	further results
3-hydroxy-4-(3-hydroxyphenyl)quinolin-2(1H)-one [Compound 3]	> 200												minimum inhibitory concentration (MIC) against Banana Colletotrichum gloeosporioides [1]: >1000 µg/mL; minimum inhibitory concentration (MIC) against Fusarium oxysporum (Fusarium oxysporum): 250 µg/mL; minimum inhibitory concentration (MIC) against Penicillium italicum (Penicillium italicum): 500 µg/mL; minimum inhibitory concentration (MIC) against Colletrichum litchi Tra (Colletrichum litchi Tra): 1000 µg/mL; minimum inhibitory concentration (MIC) against Escherichia coli ([2]; 24 h): 1000 µg/mL; minimum inhibitory concentration (MIC) against Pseudomonas aeruginosa ([3]; 24 h): 125 µg/mL; minimum inhibitory concentration (MIC) against Salmonella typhimurium [4]: 1000 µg/mL; minimum inhibitory concentration (MIC) against Staphylococcus aureus ([5]; 24 h): >1000 µg/mL; IC50 (RAW 264.7 cells; MTT assay, read-out: cytotoxic effects on RAW 264.7 cells (IC50)): < 50 µM; CC50 (RAW 264.7 cells; MTT, evaluated with cell viability at 50 μM): < 50 µM
COC(=O)Nc1nc2ccccc2[nH]1 [Carbendazim, reference compound]		< 30	< 30	< 30	< 30								
O=C(O)c1cn(C2CC2)c2cc(N3CCNCC3)c(F)cc2c1=O [Ciprofloxacin, reference compound]						< 30	< 30	< 30	< 30				
CC1OC(=O)C(C2CCNC3=C2C(=O)OC3C)=C1O (stereo not shown) [Compound 1, penifuranone A]	180	> 1000	250 (≈ 942 µM)	250 (≈ 942 µM)	1000 (≈ 3770 µM)	1000 (≈ 3770 µM)	500 (≈ 1880 µM)	1000 (≈ 3770 µM)	> 1000	42.2	> 50	> 50	IC50 ([6]; 24 h): 42.2 ± 2.26 µM; melting point: 156.7 to 158.2 °C
CCCCCCCCCCCCCCCC(=O)OC1=C([C@@H]2CCN(C(=O)CCCCCCCCCCCCCCC)C3=C2C(=O)O[C@@H]3C)C(=O)O[C@@H]1C [Compound 1a]	> 200	> 1000	250 (≈ 337 µM)	125 (≈ 168 µM)	1000 (≈ 1350 µM)	> 1000	125 (≈ 168 µM)	1000 (≈ 1350 µM)	> 1000		< 50	< 50	melting point: 76.6 to 77.2 °C
C[C@H]1OC(=O)C(CC2=C(O)[C@@H](C)OC2=O)=C1O [Compound 2, (+) - (5R, 5′R) - 3,3′-methylenebistetronic acid]	120	> 1000	250 (≈ 1040 µM)	250 (≈ 1040 µM)	500 (≈ 2080 µM)	1000 (≈ 4160 µM)	500 (≈ 2080 µM)	1000 (≈ 4160 µM)	> 1000	37 ± 0.88	> 50	> 50	
O=c1[nH]c2ccccc2c(-c2ccccc2)c1O [Compound 4, 3-hydroxy-4-phenylquinolin-2(1H)-one]	> 200	> 1000	250 (≈ 1050 µM)	250 (≈ 1050 µM)	1000 (≈ 4210 µM)	> 1000	500 (≈ 2110 µM)	1000 (≈ 4210 µM)	1000 (≈ 4210 µM)		< 50	< 50	
C[C@@H]1C[C@H]2[C@@H]3CCC4=CC(=O)C=C[C@]4(C)[C@@]3(F)[C@@H](O)C[C@]2(C)[C@@]1(O)C(=O)CO [Dexamethasone, reference compound]										58.2 ± 1.74		> 50	
COc1ccc2c(c1)c(CC(=O)O)c(C)n2C(=O)c1ccc(Cl)cc1 [Indomethacin, reference compound]										35.8 ± 5.7			CC50 at 24 h [7]: > 50 µM
O=C1O[C@H]([C@@H](O)CO)C(O)=C1O [Vitamin C, reference compound]	68.4												
